Patent publication US7144890B2, “Spiro-pentacyclic compounds” (Hoffman-La Roche Inc., priority 2004, dated 2006)

Key:
[1] = molecular target: T1, human cannabis CB1 receptor (Homo sapiens, UniProt P21554); test: Affinity for cannabinoid CB1 receptor, [3H]-CP-55,940 radioligand binding on HEK cell membranes; conditions: affinity for the CB1 receptor
T1 construct: expressed in transfected cells; host or cells: human embryonic kidney (HEK) cells, Semliki Forest Virus system, membrane preparation
Description: The affinity of the compounds of the invention for cannabinoid CB1 receptors was determined using membrane preparations of human embryonic kidney (HEK) cells in which the human cannabis CB1 receptor is transiently transfected using the Semliki Forest Virus system in conjunction with [3H]-CP-55,940 as radioligand. After incubation of a freshly prepared cell membrane preparation with the [3H]-ligand, with or without addition of compounds of the invention, separation of bound and free ligand was performed by filtration over glassfiber filters. Radioactivity on the filter was measured by liquid scintillation counting.

[2] = doses of 5, 10 and 20 mg daily; cited from earlier work

T1 sequence (P21554 whole entry): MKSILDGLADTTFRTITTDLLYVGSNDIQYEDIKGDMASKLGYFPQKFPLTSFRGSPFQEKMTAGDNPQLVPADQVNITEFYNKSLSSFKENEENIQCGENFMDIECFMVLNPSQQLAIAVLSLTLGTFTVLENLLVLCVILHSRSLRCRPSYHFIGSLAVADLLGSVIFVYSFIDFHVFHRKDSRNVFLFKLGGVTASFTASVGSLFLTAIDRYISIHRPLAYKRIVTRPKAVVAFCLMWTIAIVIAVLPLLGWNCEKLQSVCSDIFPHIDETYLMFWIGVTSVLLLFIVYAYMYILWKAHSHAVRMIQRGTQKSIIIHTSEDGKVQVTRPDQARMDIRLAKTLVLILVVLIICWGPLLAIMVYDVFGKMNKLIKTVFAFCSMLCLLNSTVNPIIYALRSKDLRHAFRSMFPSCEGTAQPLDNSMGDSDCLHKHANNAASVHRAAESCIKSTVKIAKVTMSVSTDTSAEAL

SMILES | IC50 [1] | body weight compared to placebo [2]
O=C(c1ccc2c(c1)OC1(O2)c2ccc(Cl)cc2CCc2cc(Cl)ccc21)C1CCNCC1 [Example 2, 4-[(2′,8′-dichloro-10′,11′-dihydrospiro[1,3-benzodioxole-2,5′-[5H]dibenzo[a,d]cyclohepten]-5-yl)carbonyl]-piperidine] | 18 nM | –
O=C(c1cc2c(cc1F)OC1(O2)c2ccc(Cl)cc2CCc2cc(Cl)ccc21)N1CCOCC1 [Example 1, 4-[(2′,8′-dichloro-6-fluoro-10′,11′-dihydrospiro[1,3-benzodioxole-2,5′-[5H]dibenzo[a,d]cyclohepten]-5-yl)carbonyl]-morpholine] | 13 nM | –
Cc1c(C(=O)NN2CCCCC2)nn(-c2ccc(Cl)cc2Cl)c1-c1ccc(Cl)cc1 [SR 141716] | – | significantly reduced body weight
